Data published in publication PMC6522510 (Nature Communications, 2019).

How the values were obtained:
Set-up in all cases: species or system AML cell lines (8); Primary HTS, single concentration about 10 uM, Cell Titer Glo viability; log10 luminescence, per cent inhibition relative to cycloheximide control
Details in all cases: 72 h, relative to cycloheximide control, log10 luminescence; inhibitor
[1] = system: CHRF288-11
[2] = system: M07e
[3] = system: ML-2
[4] = system: U937
[5] = system: CMK
[6] = system: CMS
[7] = system: MV4-11
[8] = system: MOLM-13

SMILES	CHRF288-11 %inh [1]	M07e %inh [2]	ML-2 %inh [3]	U937 %inh [4]	CMK %inh [5]	CMS %inh [6]	MV4-11 %inh [7]	MOLM-13 %inh [8]
N#CCn1c(=O)c(Oc2ccc(F)cc2F)cc2cnc(NC3CCOCC3)nc21 [SJ000581089-1]	0.7869%	5.15%	0.2559%	0.6532%	1.27%	1.167%	0.2945%	79.15%
Nc1c(C(=O)c2cccc(C#CCN3CCCCC3)c2)cnn1-c1ccc(F)cc1 [SJ000581090-1]	2.1%	8.075%	0.9731%	7.38%	-1.859%	8.688%	1.177%	0.3011%
O=c1[nH]c2nc(NC3CCOCC3)ncc2cc1Oc1ccc(F)cc1F [SJ000581091-1]	2.671%	7.401%	-1.12%	1.694%	-0.7252%	4.57%	0.8036%	-2.415%
COc1cccc(C2=C(c3cn(C)c4cccc(OC)c34)C(=O)NC2=O)c1 [SJ000581093-1]	15.23%	15.31%	1.141%	7.981%	64.38%	2.878%	0.2916%	14.52%
Cn1c(=O)c(Sc2ccccc2F)cc2cnc(NC3CCOCC3)nc21 [SJ000581094-1]	5.078%	79.34%	-0.9832%	-2.114%	-1.429%	-0.09142%	1.745%	-2.304%
Cn1cc(C2=C(c3cn(C)c4c([N+](=O)[O-])cccc34)C(=O)NC2=O)c2ccccc21 [SJ000581096-1]	-0.1815%	3.87%	-1.675%	-1.424%	1.442%	-0.5679%	1.039%	-1.995%
Cn1cc(C2=C(c3cccnc3)C(=O)NC2=O)c2ccccc21 [SJ000581097-1]	42.59%	1.519%	3.521%	-1.738%	8.732%	3.929%	3.908%	6.704%
Cn1cc(C2=C(c3cn(C)c4ccc(Cl)cc34)C(=O)NC2=O)c2ccccc21 [SJ000581098-1]	10.98%	13.21%	3.034%	4.952%	47.95%	0.498%	5.255%	13.33%
Cn1cc(C2=C(c3cn(C)c4ncccc34)C(=O)NC2=O)c2ccccc21 [SJ000581101-1]	23.35%	5.727%	0.3677%	8.822%	41.81%	2.698%	0.9422%	47.28%
Nc1c(C(=O)c2cccc(OCCN3CCOCC3)c2)cnn1-c1ccc(F)cc1 [SJ000581103-1]	-1.374%	6.806%	2.31%	7.007%	0.9343%	-1.582%	1.093%	-0.4893%
Nc1c(C(=O)c2cccc(CCS(N)(=O)=O)c2)cnn1-c1ccc(F)cc1 [SJ000581104-1]	-1.775%	6.935%	1.884%	0.2995%	1.701%	3.265%	1.774%	-0.2243%
Nc1[nH]nc2nc(-c3cccs3)cc(C(F)(F)F)c12 [SJ000581105-1]	-1.43%	8.033%	1.699%	0.05414%	-1.06%	2.722%	7.712%	17.65%
COc1ccccc1CCN=C1NC(=O)/C(=C/c2ccc3ncccc3c2)S1 [SJ000581106-1]	4.589%	24.66%	10.31%	6.939%	41.08%	4.605%	10.91%	8.02%
Cn1cc(C2=C(Sc3ccccc3)C(=O)NC2=O)c2ccccc21 [SJ000581108-1]	15.38%	13.92%	5.065%	7.938%	17.14%	5.691%	3.129%	79.89%
Cn1cc(C2=C(c3ccc4ccccc4c3)C(=O)NC2=O)c2ccccc21 [SJ000581109-1]	15.54%	12.46%	4.34%	4.798%	22.8%	2.57%	1.463%	1.67%
Nc1c(C(=O)c2cccc(C(O)CO)c2)cnn1-c1ccc(F)cc1 (stereo not shown) [SJ000581110-1]	9.958%	7.822%	2.206%	-0.488%	-1.427%	3.504%	3.101%	27.67%
CC(=O)Nc1ccc2c(C3=C(c4cn(C)c5ccccc45)C(=O)NC3=O)cn(C)c2c1 [SJ000581111-1]	123.6%	89.33%	39.48%	75.9%	104.7%	99.23%	74.04%	95.13%
CCNC(=O)[C@@H]1CCCN2C(=O)CC[C@H](NC(=O)[C@H](Cc3ccc(OP(=O)(O)O)cc3)NC(C)=O)C(=O)N12 [SJ000581112-1]	-7.883%	4.13%	2.455%	0.08443%	0.5327%	-0.07964%	1.373%	0.008932%
Cn1cc(C2=C(c3ccsc3)C(=O)NC2=O)c2ccccc21 [SJ000581113-1]	8.413%	3.37%	4.351%	0.5485%	4.136%	3.6%	4.067%	31.75%
CS(=O)(=O)N1CCC(Nc2ncc(C(=O)c3c(F)cccc3F)c(N)n2)CC1 [SJ000581114-1]	0.1318%	7.028%	1.661%	3.392%	18.19%	2.662%	0.7328%	68.54%
